Measured values as given in PMC12363792 (bioRxiv, 2025).

Assays:
[1] = system: CA1 hippocampal neurons; experiment: 2-photon FRET cAMP imaging in acute brain slices; type: cell-based, mice; settings: bath application 100 nM, CaMKIIα-Cre:CAMPER+/− slices
[2] = system: D2R; settings: cited from earlier work
[3] = molecular target: D2R (Homo sapiens, UniProt P14416); type: cell-based; settings: D2R vs D3R
D2R (Homo sapiens, UniProt P14416), sequence (P14416 whole entry): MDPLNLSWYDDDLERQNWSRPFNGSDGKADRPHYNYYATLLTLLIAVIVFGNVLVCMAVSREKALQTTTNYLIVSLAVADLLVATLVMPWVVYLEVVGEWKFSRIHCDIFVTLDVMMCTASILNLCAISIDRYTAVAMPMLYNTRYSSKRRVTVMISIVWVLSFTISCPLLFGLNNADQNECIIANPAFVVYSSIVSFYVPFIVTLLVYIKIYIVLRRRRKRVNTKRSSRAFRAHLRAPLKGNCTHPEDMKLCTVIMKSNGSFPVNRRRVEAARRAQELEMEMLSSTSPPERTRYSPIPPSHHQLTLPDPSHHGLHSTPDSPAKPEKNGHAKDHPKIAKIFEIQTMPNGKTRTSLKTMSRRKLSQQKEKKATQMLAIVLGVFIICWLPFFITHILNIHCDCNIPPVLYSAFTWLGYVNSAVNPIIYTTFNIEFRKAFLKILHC

| Structure (SMILES) | agonist-induced cAMP response [1] | affinity for D2R over D3R [2] [fold] | activation of GoA via D2R compared to D3R [3] |
| --- | --- | --- | --- |
| COc1ccc(OCCN2CCN(C(=O)c3cc4ccccc4[nH]3)CC2)cc1 [ML417] | increase in cAMP production |  |  |
| CN[C@@H]1Cc2cccc3[nH]c(=O)n(c23)C1 [sumanirole] | robust inhibition of cAMP | 200 | five |
